This is an account of results in patent US20090270442A1, “POLYMORPHS OF HYDROCHLORIDE SALT OF 5-(3-(ETHYLSULFONYL)PHENYL)-3,8-DIMETHYL-N-(1-METHYLPIPERIDIN-4-YL)-9H-PYRIDO[2,3-B]INDOLE-7-CARBOXAMIDE AND METHODS OF USE THEREFOR” (TAKEDA PHARMACEUTICAL COMPANY LIMITED, priority 2008, published 2009).

≈ marks a conversion by molar mass, not a printed value. Like-named read-outs stand apart in the source and are kept apart here.

Format in all cases: physicochemical
Data set [1] can be described thus: Solvent screen: solubility of Compound 1 in various solvents (Table 16). As to the method: Compound 1 as prepared by the method described in Example I may be used as the starting material for preparation of other polymorphic forms. The methods for testing the solubility of Compound 1 are described in Example 3, and the solubilities of Compound 1 in various solvents are summarized in Table 16. […] A solubility study of Compound 1 in various solvents was executed to select appropriate solvents for the further crystallizations. The material was placed in vials and the solvent was added in 250 μL portions. Solvents were picked based on differences in polarity and functionality and on their classification according to the International Conference on Harmonization (ICH), with preferences given to class II and class III solvents. After each addition of solvent, the vials were visually inspected for residual solids, and further heating to 55° C. to ensure dissolution.

Data set [2] in a line: Solubility study of Form A in DI water and 20 mM phosphate buffer (pH 3.2) (Table 37). As to conditions: for pH (final, 1 week): supernatant after 1 week slurry; for solubility at 1 day: read-out: Solubility mg/mL (1 day); for solubility at 1 week: read-out: Solubility mg/mL (1 week). The method, then: The solubility measurement of Compound 1 Form A was performed in DI water (Milli-Q) and in 20 mM phosphate buffer (pH 3.2), see Table 37. Each vial was charged with 50-55 mg of Compound 1 and 1 mL of the corresponding solvent.
Both slurries were stirred at room temperature for approximately 19 hours. An aliquot (0.2 mL) was taken from each sample for the solubility determination and XRPD test. […] Both slurries were allowed to stir for an additional 6 days at room temperature. The pH of the supernatant liquid and solubility were determined following the 1 week slurry.

Data set [3] is described as follows: Moisture-sorption analysis (adsorption/desorption, then drying 1 h at 80° C. and XRPD) (Table 40). As to conditions: for XRPD pattern after drying: dried for one hour at 80° C. As to the method: Moisture-sorption experiments were carried out on three forms by first drying the sample at 0% RH and 25° C. until an equilibrium weight was reached or for a maximum of four hours. The sample was then subjected to an isothermal (25° C.) adsorption scan from 10 to 90% RH in steps of 10%. The sample was allowed to equilibrate to an asymptotic weight at each point for a maximum of four hours. Following adsorption, a desorption scan from […] to 0% RH (at 25° C.) was run in steps of −10%, again allowing a maximum of four hours for equilibration to an asymptotic weight. The sample was then dried for one hour at 80° C. and the resulting solid analyzed by XRPD.

A short description of data set [4]: Karl Fischer analysis (KF), water content. As to conditions: for water content by KF: theoretical for a monohydrate 3.2%. The method, then:
Water content was determined by adding solid sample to the instrument with HYDRANAL-Coulomat AD. Micrograms of water were determined by coulometric titration.

Data set [5] in a line: Humidity chamber study at 0% and 95% RH, one week, XRPD and KF (Table 38). The conditions noted are these: 0 and 95% RH for one week, ambient temperature. The method, then: The 0% RH chamber was prepared with drierite and the 95% RH chamber was made with a saturated solution of Na2HPO4.12H2O in DI water. The chambers were equilibrated for >1 week prior to introducing samples. Samples were placed in Teflon-lined caps for scintillation vials and allowed to equilibrate for one week then analyzed by XRPD and KF to determine form and water content.
FIG. 60 summarizes the conversion of the forms of Compound 1 observed from slurry and humidity chamber studies.

Data set [6] can be described thus: Drying study of Form A under vacuum at 40-85° C., XRPD and OVI (Table 39). As to the method: Approximately 100 mg of sample was weighed into an individual 20-mL headspace vial and 5 mL of DMSO added. The vial was then sealed and gentle shaking/vortexing was used to ensure sample was entirely dissolved. Blank samples were prepared by transferring 5.0 mL of DMSO into a 20-mL headspace vial and then sealed. Standards were prepared using stock solutions in DMSO. Compound 1 (4.08 g, Form A) was dried under vacuum at 40° C. overnight. A small sample (˜200 mg) was taken for XRPD and OVI tests. The rest of the material was further dried under vacuum at 55° C. overnight. A second sample (˜200 mg) was taken for XRPD and OVI tests. The oven temperature was increased to 70° C. and the material was further dried under vacuum at 70° C. overnight. A third sample (˜200 mg) was taken for XRPD and OVI tests. The oven temperature was then increased to 85° C. and the material was further dried under vacuum over weekend. Analysis by XRPD and OVI was completed as shown in Table 39 along with experimental details.

A short description of data set [7]: 1 week slurry experiments in water, IPA, EtOAc, MeCN, EtOH and dioxane, form by XRPD (Table 34). The conditions noted are these: for Form (1 wk): RT, resulting form by XRPD. As to the method:
Each vial was charged with approximately 25-30 mg of API and 1 mL of the corresponding solvent, followed by stirring at room temperature for one week. […] The obtained solids were isolated by filtration, dried under vacuum at room temperature and analyzed by XRPD.

[8] abbreviates: 20 mM phosphate buffer slurry, room temperature.
Where [9] appears, read: DI water slurry, room temperature.

Turning to `CCS(=O)(=O)c1cccc(-c2cc(C(=O)NC3CCN(C)CC3)c(C)c3[nH]c4ncc(C)cc4c23)c1.Cl` [Compound 1, 5-(3-(ethylsulfonyl)phenyl)-3,8-dimethyl-N-(1-methylpiperidin-4-yl)-9H-pyrido[2,3-b]indole-7-carboxamide hydrochloride], the solubility in data set [1] (55 °C, thermodynamic from solid, solvent water, Temp 55, Soluble No, read-out: Conc.) was no more than 600 µg/mL; in data set [1] (in acetone, MeCN, MTBe, EtOAc, IPAc, IPA, THF, 2-Me-THF, DCM, MEK, cyclohexane, heptane and water), “Poor solubility”; in data set [1] (in dioxane, MeOH, DMF, DMA, NMP, AcOH and EtOH) it was “Good solubility”. Also, the Soluble entry in data set [1] (solvent 2-Me-THF, 0.4 mg/mL, Temp 55) is listed as “No”; in data set [1] (solvent AcOH, >9.2 mg/mL, Temp RT), “Yes”; in data set [1] (solvent Acetone, 0.3 mg/mL, Temp 55), “No”; in data set [1] (solvent Chloroform, >8.4 mg/mL, Temp RT), “Yes”; in data set [1] (solvent DCM, 0.8 mg/mL, Temp RT), “No”; in data set [1] (solvent DMA, >9.2 mg/mL, Temp RT) it was “Yes”. Moreover, the Soluble entry is “Yes” in data set [1] (solvent DMF, >10.4 mg/mL, Temp RT); “Yes” in data set [1] (solvent Dioxane, 0.7 mg/mL, Temp 55); “No” in data set [1] (solvent EtOAc, 0.4 mg/mL, Temp 55); “Yes” in data set [1] (solvent EtOH, 1.2 mg/mL, Temp 55); “No” in data set [1] (solvent Heptane, 0.4 mg/mL, Temp 55); “No” in data set [1] (solvent IPA, 0.5 mg/mL, Temp 55). The Soluble result in data set [1] (solvent IPAC, 0.5 mg/mL, Temp 55) is given as “No”; in data set [1] (solvent MEK, 0.6 mg/mL, Temp 55), “No”; in data set [1] (solvent MTBE, 0.3 mg/mL, Temp 55), “No”; in data set [1] (solvent MeCN, 0.5 mg/mL, Temp 55), “No”; in data set [1] (solvent MeOH, >10.0 mg/mL, Temp RT), “Yes”; in data set [1] (solvent NMP, >10.4 mg/mL, Temp RT) it was “Yes”. Besides, the Soluble entry in data set [1] (solvent THF, 0.4 mg/mL, Temp 55) was “No”; in data set [1] (solvent Toluene, 0.4 mg/mL, Temp 55) it was “No”; in data set [1] (solvent c-Hexane, 0.5 mg/mL, Temp 55), “No”; in data set [1] (solvent water, 0.6 mg/mL, Temp 55), “No”. Further, the “Conc.” value in data set [1] (solvent 2-Me-THF, Temp 55, Soluble No) was 400 µg/mL; in data set [1] (solvent AcOH, Temp RT, Soluble Yes), greater than 9200 µg/mL; in data set [1] (solvent Acetone, Temp 55, Soluble No) it was 300 µg/mL; in data set [1] (solvent Chloroform, Temp RT, Soluble Yes), greater than 8400 µg/mL; in data set [1] (solvent DCM, Temp RT, Soluble No) it was 800 µg/mL; in data set [1] (solvent DMA, Temp RT, Soluble Yes), greater than 9200 µg/mL. The “Conc.” value in data set [1] (solvent DMF, Temp RT, Soluble Yes) was greater than 10400 µg/mL; in data set [1] (solvent Dioxane, Temp 55, Soluble Yes) it was 700 µg/mL; in data set [1] (solvent EtOAc, Temp 55, Soluble No), 400 µg/mL; in data set [1] (solvent EtOH, Temp 55, Soluble Yes), 1200 µg/mL; in data set [1] (solvent Heptane, Temp 55, Soluble No), 400 µg/mL; in data set [1] (solvent IPA, Temp 55, Soluble No), 500 µg/mL. The “Conc.” value is 500 µg/mL in data set [1] (solvent IPAC, Temp 55, Soluble No); 600 µg/mL in data set [1] (solvent MEK, Temp 55, Soluble No); 300 µg/mL in data set [1] (solvent MTBE, Temp 55, Soluble No); 500 µg/mL in data set [1] (solvent MeCN, Temp 55, Soluble No); greater than 10000 µg/mL in data set [1] (solvent MeOH, Temp RT, Soluble Yes); greater than 10400 µg/mL in data set [1] (solvent NMP, Temp RT, Soluble Yes). Also, the “Conc.” value turned out to be 400 µg/mL in data set [1] (solvent THF, Temp 55, Soluble No); 400 µg/mL in data set [1] (solvent Toluene, Temp 55, Soluble No); 500 µg/mL in data set [1] (solvent c-Hexane, Temp 55, Soluble No).

In the case of `CCS(=O)(=O)c1cccc(-c2cc(C(=O)NC3CCN(C)CC3)c(C)c3[nH]c4ncc(C)cc4c23)c1` [Form A], the “XRPD (1 week)” value in data set [2] (setting [8]) and in data set [2] (setting [9]) was “Form A” in each case. Further, the “XRPD (1 day)” value in data set [2] (setting [8]) and in data set [2] (setting [9]) was “Form A” each time. Besides, the “pH (final, 1 week)” value is recorded as 3.3 in data set [2] (20 mM phosphate buffer) and 5.0 in data set [2] (DI water). Moreover, the solubility in data set [2] (DI water and 20 mM phosphate buffer (pH 3.2), thermodynamic from solid, DI water and phosphate buffer slurries, after equilibration overnight and 1 week, room temperature) was 3000 to 4000 µg/mL (≈ 5.94 to 7.93 mM). Moreover, the solubility at 1 day worked out at 3.3 mg/mL (≈ 6.54 mM) in data set [2] (aqueous buffer, thermodynamic from solid, 20 mM phosphate buffer, initial pH 3.2, room temperature) and 3.1 mg/mL (≈ 6.14 mM) in data set [2] (thermodynamic from solid, DI water, initial pH 8.1, room temperature). Besides, the solubility at 1 week in data set [2] (pH 3.2, aqueous buffer, thermodynamic from solid, 20 mM phosphate buffer, room temperature) turned out to be 4.1 mg/mL (≈ 8.12 mM); in data set [2] (pH 8.1, thermodynamic from solid, DI water, room temperature), 4.3 mg/mL (≈ 8.52 mM). Further, the “stability of the hydrate over relative humidity (moisture sorption curve)” value in data set [3] (25° C.) is reported as “stable from 5 to 90% RH”. In data set [3] (at 90% RH, 25° C.), this compound showed a maximum moisture uptake of 4.2 wt %. For the same compound, in data set [3], the “XRPD pattern after drying” value is given as “consistent with Form A”. The “water content by KF after heating” value in data set [4] (another sample, after heating) turned out to be 3.0%. Further, the “water content by KF before heating” value in data set [4] (another sample, before heating) is recorded as 3.1%. Moreover, the “water content by KF” value in data set [4] is 3.7%. Moreover, in data set [5], the “change in form upon humidity exposure” value is “did not show a change in form”. In addition, the “Residual Amt of MeCN by OVI (ppm)” value in data set [6] (dried under vacuum at 40° C., time at temperature 16) was found to be 1353 ppm; in data set [6] (dried under vacuum at 55° C., time at temperature 24 (total 40)), 1303 ppm; in data set [6] (dried under vacuum at 70° C., time at temperature 24 (total 64)), 1113 ppm; in data set [6] (dried under vacuum at 85° C., time at temperature 72 (total 136)) it was 670 ppm.

On to `CCS(=O)(=O)c1cccc(-c2cc(C(=O)NC3CCN(C)CC3)c(C)c3[nH]c4ncc(C)cc4c23)c1` [Form L], for which, in data set [3] (25° C.), the “hygroscopicity (moisture sorption curve)” value is given as “moderately hygroscopic” and the hysteresis upon desorption result is “not observed”. The compound further came in with a maximum water uptake in data set [3] (at 90% RH, 25° C.) of 3.9%. Moreover, in data set [3], the “XRPD pattern after drying” value is “same pattern before and after drying”. Also, the “water content by KF” value in data set [4] turned out to be 2.9%. The “form after slurry in non-aqueous solvents” value in data set [7] (solvents other than water, room temperature, one week) is recorded as “to the anhydrate Form C”. In data set [7] (room temperature, one week), the “form isolated after slurry in water” value is on record as “convert to the monohydrate Form A”.

Turning to `CCS(=O)(=O)c1cccc(-c2cc(C(=O)NC3CCN(C)CC3)c(C)c3[nH]c4ncc(C)cc4c23)c1` [Form N], the “Form (1 wk)” value in data set [7] (1 week slurry in Dioxane (1.0 mL)), in data set [7] (1 week slurry in EtOAc (1.0 mL)) and in data set [7] (1 week slurry in IPA (1.0 mL)) was “C + P” in each case. The “form isolated after slurry in water” value in data set [7] (room temperature, one week) was “Form A”.
